Measured values taken from ChEMBL document CHEMBL1145757, “QSAR study on solubility of alkanes in water and their partition coefficients in different solvent systems using PI index” (Bioorg Med Chem Lett, 2003).
In brackets after ≈: the same amount, converted by molar mass.

Legend:
physchem [1] = experiment: physchem
Description: Solubility in water was determined; values expressed as -log

physchem [2] = conditions: octanol/water
Description: Partition coefficient (logP)

[3] = Partition coefficient in water-cyclohexane was determined; type: ADME
[4] = octanol/water
Description: Partition coefficient (logP)

[5] = water/hexadecane
Description: Partition coefficient in water-hexadecane (P16) was determined

[6] = water/alkane
Description: Partition coefficient in alkanes was determined

| Compound | solubility (physchem [1]; water) | logP (physchem [2]) | Log Pcyc [3] | logP [4] | solubility (physchem [1]; buffer) | Log P16 [5] | Log Palk [6] |
| --- | --- | --- | --- | --- | --- | --- | --- |
| CCCCCCCCCCCCCC | 0.011 µM (≈ 0.00218 µg/mL) | 8 | – | – | – | – | – |
| CCCCCCCCCCCCCCCC [HEXADECANE] | 0.00398 µM (≈ 0.000902 µg/mL) | – | – | 9.57 | – | – | – |
| CCCCCC [HEXANE] | – | – | – | 3.9 | 145 µM (≈ 12.5 µg/mL) | – | – |
| C [METHANE] | – | – | 1.33 | – | – | 1.14 | 1.37 |
| CCCCC [PENTANE] | 661 µM (≈ 47.7 µg/mL) | – | 4.27 | – | – | 3.87 | 4.06 |

The next lines start with results.

| solubility (physchem [1]; water) | logP (physchem [2]) | Log Pcyc [3] | logP [4] | solubility (physchem [1]; buffer) | Log P16 [5] | Compound | Log Palk [6] |
| --- | --- | --- | --- | --- | --- | --- | --- |
| – | – | 3.62 | 2.89 | 2690 µM (≈ 156 µg/mL) | – | CCCC [BUTANE] | – |
| 0.105 µM (≈ 0.0149 µg/mL) | 6.34 | – | – | – | 7.01 | CCCCCCCCCC [DECANE] | – |
| – | – | – | – | 0.0214 µM (≈ 0.00364 µg/mL) | – | CCCCCCCCCCCC [DODECANE] | – |
| 29.5 µM (≈ 2.96 µg/mL) | 4.5 | – | – | – | 5.14 | CCCCCCC [HEPTANE] | – |
| – | 5.65 | – | – | 1.32 µM (≈ 0.169 µg/mL) | 6.49 | CCCCCCCCC [NONANE] | – |
| 5.75 µM (≈ 0.657 µg/mL) | 5.15 | – | – | – | 5.79 | CCCCCCCC [OCTANE] | – |
